Measurements taken from patent US6784191B2, “Benzamidine derivatives” (Ajinomoto Co., Inc., priority 1999, dated 2004).

Legend:
[1] = target: T1, activated human blood coagulation factor X (Homo sapiens, UniProt P00742); assay: Determination of activity of inhibiting the activated blood-coagulation factor X (chromogenic substrate, initial rate); format: biochemical; settings: negative logarithm of concentration inhibiting 50% of initial rate, tris hydrochloride buffer pH 8.4, room temperature; for IC50: read-out: Activity of inhibiting activated blood coagulation factor X (pIC50) (converted)
T1 construct: purchased Enzyme Research Co
Description: Determination of Activity of Inhibiting the Activated Blood-coagulation Factor X
130 μl of 100 mM tris hydrochloride buffer adjusted to pH 8.4 was added to 10 μl of an aqueous solution of a compound to be tested. Then 10 μl of a 0.5 unit/ml solution of activated human blood coagulation factor X (a product of Enzyme Research Co.) in tris hydrochloride buffer of pH 8.4 was added to the resultant mixture. After the incubation at room temperature for 10 minutes, 50 μl of a solution of N-benzoyl-L-isoleucine-L-glutamine-glycine-L-arginine-P-nitroanilide hydrochloride (a product of Peptide Institute Inc.) adjusted to 0.8 mM with tris hydrochloride (pH 8.4) was added thereto. The absorbance was determined and then the initial reaction rate was determined. A control was prepared in the same manner as that described above except that the solution of the compound to be tested was replaced with 10 μl of tris hydrochloride buffer adjusted to pH 8.4. The absorbance was determined with MICROPLATE READER Model 3550-UV (a product of BIO RAD) at a wave length of 405 nm at intervals of 15 seconds for 16 minutes.

human thrombin = target: T2, human thrombin (Homo sapiens, UniProt P00734); assay: Determination of thrombin-inhibiting activity (S-2238 chromogenic substrate, initial rate); format: biochemical; settings: negative logarithm of concentration inhibiting 50% of initial rate, tris hydrochloride buffer pH 8.4, room temperature; for IC50: read-out: Thrombin-inhibiting activity (pIC50) (converted)
T2 construct: human thrombin (a product of SIGMA Co.); purchased SIGMA Co
Description: Determination of Thrombin-Inhibiting Activity
130 μl of 100 mM tris hydrochloride buffer adjusted to pH 8.4 was added to 10 μl of an aqueous solution of a test compound. Then 10 μl of a solution of human thrombin (a product of SIGMA Co.) adjusted to 2 units/ml with tris hydrochloride buffer of pH 8.4 was added to the resultant mixture. After the incubation at room temperature for 10 minutes, 50 μl of a solution of D-phenylalanine-L-pipecolyl-L-arginine-P-nitroanilide dihydrochloride (S-2238; a product of Daiichi Kagaku Yakuhin Co.) adjusted to 0.4 mM with tris hydrochloride buffer of pH 8.4 was added thereto. The absorbance was determined and then the initial reaction rate was determined. A control was prepared in the same manner as that described above except that the solution of the compound to be tested was replaced with 10 μl of tris hydrochloride buffer adjusted to pH 8.4. The absorbance was determined with MICROPLATE READER Model 3550-UV (a product of […]) at a wave length of 405 nm at intervals of 15 seconds for 16 minutes.

[2] = system: blood plasma (prothrombin time); assay: Determination of blood anticoagulating activity by prothrombin time (PT) method; format: biochemical, human; settings: blood plasma from healthy people, citrate; Sysmex PT II rabbit brain thromboplastin, 37° C.
Description: Determination of Blood Anticoagulating Activity
The blood anticoagulating activity was determined by a prothrombin time (PT) determination method. The PT was determined as follows: The blood was taken from healthy people. 3.8% aqueous trisodium citrate solution was added to the blood in a volume ratio of 1:10. The blood plasma was separated by the centrifugation. 5 μl of DMSO solution containing a test compound was added to 45 μl of the blood plasma. After the incubation at room temperature for 2 minutes, a test tube containing the blood plasma solution was placed in Sysmex CA-3000 fully automatic blood coagulation determination device (a product of Toa Medical Electronics Co., Ltd.), and incubated at 37° C. for 3 minutes. 100 μl of Sysmex PT II (rabbit brain tissue thromboplastin, 13.2 mM calcium chloride; a product of Toa Medical Electronics Co., Ltd.) was fed into the test tube. PT was automatically determined with the device. A sample containing 5 μl of DMSO in place of the solution of the test compound was used as the control. The negative logarithm (pPT2) of the concentration of the test compound which elongated PT of the control to the twice as long was determined, and employed as the index of the blood anticoagulating activity.

T1 sequence (P00742 235-488 limits assumed): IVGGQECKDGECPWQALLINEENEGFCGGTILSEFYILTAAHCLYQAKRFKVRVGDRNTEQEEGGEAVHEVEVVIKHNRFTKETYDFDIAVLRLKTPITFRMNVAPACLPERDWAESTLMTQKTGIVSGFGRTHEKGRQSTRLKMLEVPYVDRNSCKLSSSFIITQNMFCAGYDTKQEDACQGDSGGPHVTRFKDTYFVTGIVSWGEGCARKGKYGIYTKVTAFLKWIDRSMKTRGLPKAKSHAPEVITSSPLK
T1 sequence (P00742 41-179 partner limits assumed): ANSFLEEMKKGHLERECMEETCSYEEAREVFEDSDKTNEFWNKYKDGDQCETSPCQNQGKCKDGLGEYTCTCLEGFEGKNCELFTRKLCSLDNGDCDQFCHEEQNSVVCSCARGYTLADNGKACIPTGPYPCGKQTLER

Structure (SMILES)	IC50 [1] [nM]	IC50 (human thrombin) [nM]	Activity of inhibiting activated blood coagulation factor X (pIC50) [1]	Thrombin-inhibiting activity (pIC50) (human thrombin)	pPT2 (negative logarithm of the concentration which elongated PT of the control to twice as long) [2]
N/C(=N/O)c1ccc(CCP(=O)(O)O)c(OCCNC(=O)c2ccc(C(=O)N3CCCC3)cc2)c1 [Compd. of Ex. 6, [2-(4-Hydroxylamidino-2-[2-[4-(1-pyrrolidinecarbamoyl)benzoylamino]ethoxy]phenyl)ethyl]phosphoric acid monotrifluoroacetate]	79.4	> 100000			
CC(=N)N1CCC(Oc2ccc(C(=O)NCCOc3cc(C(=N)N)ccc3CCP(=O)(O)O)cc2)CC1 [Compd. of Ex. 2]	2.51	> 100000			
N=C(N)c1ccc(CCP(=O)(O)O)c(OC[C@H](CCC(=O)O)NC(=O)C2CCN(c3ccncc3)CC2)c1.O=C(O)C(F)(F)F.O=C(O)C(F)(F)F [Compd. of Ex. 4, (4S)-5-(5-amidino-2-(2-phosphorylethyl)phenoxy)-4-((1-(1-pyridine-4-yl)piperidine-4-carbonyl)-amino)pentanoic acid bistrifluoroacetate]			8.7	<4.0	
N=C(N)c1ccc(CCP(=O)(O)O)c(OCCNC(=O)C2CCN(c3ccncc3)CC2)c1 [Compd. of Ex. 1, [2-(4-Amidino-2-[2-[(1-(1-pyridine-4-yl)piperidine-4-carbonyl)amino]ethoxy]phenyl)ethyl]phosphoric acid bistrifluoroacetate]	3.16	> 316000		<3.5	6.8
N=C(N)c1ccc(CCP(=O)(O)O)c(OCCNC(=O)c2ccc(C(=O)N3CCCC3)cc2)c1 [Compd. of Ex. 3, [2-(4-Amidino-2-[2-[4-(1-pyrrolidinecarbamoyl)benzoylamino]ethoxy]phenyl)ethyl]phosphoric acid mono-trifluoroacetate]	2.51	39800			
